Values after ≈ are worked out from the molar mass of the structure shown.
How the values were obtained:
[1] = system: Candida albicans; experiment: Antifungal activity against Candida albicans C125-2000 after 48 hrs; format: functional
[2] = system: Candida albicans; experiment: Antifungal activity against Candida albicans C126-2000 after 48 hrs; format: functional
[3] = system: Candida albicans; experiment: Antifungal activity against Candida albicans C127-2000 after 48 hrs; format: functional
[4] = system: Candida albicans; experiment: Antifungal activity against Candida albicans C128-2000 after 48 hrs; format: functional
[5] = system: Candida albicans; experiment: Antifungal activity against Candida albicans C130-2000 after 48 hrs; format: functional
[6] = system: Nakaseomyces glabratus; experiment: Antifungal activity against Candida glabrata C115-2000 after 48 hrs; format: functional
[7] = system: Candida parapsilosis; experiment: Antifungal activity against Candida parapsilosis C124-2000 after 48 hrs; format: functional; details: Lodderomyces parapsilosis
[8] = system: Clavispora lusitaniae; experiment: Antifungal activity against Candida lusitaniae C131-2000 after 48 hrs; format: functional
[9] = system: Torulaspora delbrueckii; experiment: Antifungal activity against Candida coliculosa C122-2000 after 48 hrs; format: functional
[10] = system: Pichia kudriavzevii; experiment: Antifungal activity against Candida krusei C117-2000 after 48 hrs; format: functional
[11] = system: Kluyveromyces marxianus; experiment: Antifungal activity against Candida kefyr C123-2000 after 48 hrs; format: functional
[12] = system: Candida tropicalis; experiment: Antifungal activity against Candida tropicalis C131-1997 after 48 hrs; format: functional
[13] = system: Cryptococcus neoformans; experiment: Antifungal activity against […] ATCC 32264 after 48 hrs; format: functional; details: ATCC 32264, 48 h
[14] = system: Cryptococcus neoformans; experiment: Antifungal activity against Candida neoformans IM 983040 after 48 hrs; format: functional
[15] = system: Cryptococcus neoformans; experiment: Antifungal activity against […] IM 972724 after 48 hrs; format: functional
[16] = system: Cryptococcus neoformans; experiment: Antifungal activity against […] IM 042074 after 48 hrs; format: functional
[17] = system: Cryptococcus neoformans; experiment: Antifungal activity against […] IM 983036 after 48 hrs; format: functional
[18] = system: Cryptococcus neoformans; experiment: Antifungal activity against […] IM 00319 after 48 hrs; format: functional
[19] = system: Cryptococcus neoformans; experiment: Antifungal activity against […] IM 972751 after 48 hrs; format: functional
[20] = system: Cryptococcus neoformans; experiment: Antifungal activity against […] IM 031631 after 48 hrs; format: functional
[21] = system: Cryptococcus neoformans; experiment: Antifungal activity against […] IM 031706 after 48 hrs; format: functional
[22] = system: Cryptococcus neoformans; experiment: Antifungal activity against […] IM 961951 after 48 hrs; format: functional
[23] = system: Cryptococcus neoformans; experiment: Antifungal activity against […] IM 052470 after 48 hrs; format: functional
[24] = system: Nannizzia gypsea; experiment: Antifungal activity against Microsporum gypseum C115 after 48 hrs; format: functional
[25] = system: Trichophyton rubrum; experiment: Antifungal activity against Trichophyton rubrum C113 after 48 hrs; format: functional
[26] = system: Trichophyton benhamiae; experiment: Antifungal activity against Trichophyton mentagrophytes ATCC 9972 after 48 hrs; format: functional, Arthroderma benhamiae; details: ATCC 9972, 48 h
[27] = system: Candida albicans; experiment: Antifungal activity against Candida albicans ATCC 10231 after 48 hrs; format: functional; details: ATCC 10231, 48 h
[28] = system: Saccharomyces cerevisiae; experiment: Antifungal activity against Saccharomyces cerevisiae ATCC 9763 after 48 hrs; format: functional; details: ATCC 9763, 48 h
[29] = system: Cryptococcus neoformans; experiment: Antifungal activity against Cryptococcus neoformans ATCC 32264 after 48 hrs; format: functional; details: ATCC 32264, 48 h
[30] = system: Aspergillus niger; experiment: Antifungal activity against Aspergillus niger ATCC 9029 after 48 hrs; format: functional; details: ATCC 9029, 48 h
[31] = system: Aspergillus fumigatus; experiment: Antifungal activity against Aspergillus fumigatus ATCC 26934 after 48 hrs; format: functional; details: ATCC 26934, 48 h
[32] = system: Aspergillus flavus; experiment: Antifungal activity against Aspergillus flavus ATCC 9170 after 48 hrs; format: functional; details: ATCC 9170, 48 h

SMILES	MFC [1] [µg/mL]	MFC [2] [µg/mL]	MFC [3] [µg/mL]	MFC [4] [µg/mL]	MFC [5] [µg/mL]	MFC [6] [µg/mL]	MFC [7] [µg/mL]	MFC [8] [µg/mL]	MFC [9] [µg/mL]	MFC [10] [µg/mL]	MFC [11] [µg/mL]	MIC [24] [µg/mL]	MIC [25] [µg/mL]	MIC [26] [µg/mL]	MIC [27] [µg/mL]	MIC [28] [µg/mL]	MIC [29] [µg/mL]	MIC [30] [µg/mL]	MIC [31] [µg/mL]	MIC [32] [µg/mL]	other results
C[C@@H]1[C@H](O)[C@@H](C)/C=C/C=C/C=C/C=C/C=C/C=C/C=C/[C@H](O[C@@H]2O[C@H](C)[C@@H](O)[C@H](N)[C@@H]2O)C[C@@H]2O[C@](O)(C[C@@H](O)C[C@@H](O)[C@H](O)CC[C@@H](O)C[C@@H](O)CC(=O)O[C@H]1C)C[C@H](O)[C@H]2C(=O)O [AMPHOTERICIN B]	0.78 (≈ 0.844 µM)	1.56 (≈ 1.69 µM)	0.78 (≈ 0.844 µM)	1.56 (≈ 1.69 µM)	0.78 (≈ 0.844 µM)	0.39 (≈ 0.422 µM)	0.78 (≈ 0.844 µM)	0.39 (≈ 0.422 µM)	0.36 (≈ 0.39 µM)	0.39 (≈ 0.422 µM)	0.78 (≈ 0.844 µM)										MFC [12]: 0.5 µg/mL (≈ 0.541 µM); MFC [13]: 0.25 µg/mL (≈ 0.271 µM); MFC [14]: 0.13 µg/mL (≈ 0.141 µM); MFC [15]: 0.06 µg/mL (≈ 0.0649 µM); MFC [16]: 0.25 µg/mL (≈ 0.271 µM); MFC [17]: 0.13 µg/mL (≈ 0.141 µM); MFC [18]: 0.25 µg/mL (≈ 0.271 µM); MFC [19]: 0.25 µg/mL (≈ 0.271 µM); MFC ([20]; Cryptococcus neoformans, 48 h, read-out: MFC): 0.13 µg/mL (≈ 0.141 µM); MFC [21]: 0.25 µg/mL (≈ 0.271 µM); MFC [22]: 0.06 µg/mL (≈ 0.0649 µM); MFC [23]: 0.5 µg/mL (≈ 0.541 µM)
C[C@@H](c1ncncc1F)[C@](O)(Cn1cncn1)c1ccc(F)cc1F [VORICONAZOLE]																					MFC [14]: < 0.015 µg/mL; MFC [15]: < 0.015 µg/mL; MFC [16]: < 0.015 µg/mL; MFC [17]: < 0.015 µg/mL; MFC [18]: < 0.015 µg/mL; MFC [19]: 0.03 µg/mL (≈ 0.0859 µM); MFC [20]: 0.25; MFC [21]: 0.5 µg/mL (≈ 1.43 µM); MFC [22]: 0.015 µg/mL (≈ 0.0429 µM); MFC [23]: 0.03 µg/mL (≈ 0.0859 µM)
O=C1NC(=S)S/C1=C\c1ccccc1F												3.9 (≈ 16.3 µM)	3.9 (≈ 16.3 µM)	3.9 (≈ 16.3 µM)	250 (≈ 1040 µM)	250 (≈ 1040 µM)	15.6 (≈ 65.2 µM)	> 250	> 250	> 250	
O=C1NC(=S)S/C1=C\c1ccc(Cl)cc1												62.5 (≈ 244 µM)	62.5 (≈ 244 µM)	62.5 (≈ 244 µM)	250 (≈ 978 µM)	250 (≈ 978 µM)	15.6 (≈ 61 µM)	250 (≈ 978 µM)	125 (≈ 489 µM)	125 (≈ 489 µM)	
CC(=O)N1CCN(c2ccc(OCC3COC(Cn4ccnc4)(c4ccc(Cl)cc4Cl)O3)cc2)CC1 (stereo not drawn) [KETOCONAZOLE]	6.25 (≈ 11.8 µM)	1.56 (≈ 2.94 µM)	6.25 (≈ 11.8 µM)	6.25 (≈ 11.8 µM)	6.25 (≈ 11.8 µM)	1.56 (≈ 2.94 µM)	0.78 (≈ 1.47 µM)	25 (≈ 47 µM)	0.78 (≈ 1.47 µM)	50 (≈ 94.1 µM)	0.78 (≈ 1.47 µM)										MFC [12]: 0.125 µg/mL (≈ 0.235 µM); MFC [13]: 0.25 µg/mL (≈ 0.47 µM)
O=C1NC(=S)S/C1=C\[n+]1ccccc1												> 250	> 250	> 250	> 250	> 250	> 250	> 250	> 250	> 250	
